Values of other authors, collected in PubChem BioAssay AID1259409 (Chemical Carcinogenesis Research Information System (CCRIS), 2018).
Where “and” joins values, the source holds several entries; their conditions need not be identical. Equal values may be shown once.

Test system: rodent chemically induced tumor inhibition, incidence and multiplicity
Assay: CCRIS tumor inhibitor studies

In the case of `CC1=C(/C=C/C(C)=C/C=C/C(C)=C/C=C/C=C(C)/C=C/C=C(\C)C=O)C(C)(C)CCC1`, the “tumour outcome (control, treated, inhibition, significance)” value (Carcinogen: BENZO[A]PYRENE, 50-32-8, Dose [Inhibitor]: 0, 4.7 MICROMOLAR/D IN 0.1 ML PEANUT OIL BEGINNING 2 WK PRIOR TO CARCINOGEN TREATMENT AND CONTINUING TO 2 WK POST CARCIN, Route [Inhibitor]: GAVAGE, Species: MOUSE, Strain/Sex: SWISS/FEMALE, Target Tissue: Type of Lesion: FORESTOMACH: TUMOR, Dose [Carcinogen]: 1 MG 2/WK IN 0.1 ML PEANUT OIL FOR 4 WK, Promoter: NONE USED) is listed as 20/20 (100%), 5/20 (25%), 75%, p<0.001.
In the case of `CC(C)=CCC/C(C)=C/COc1c2ccoc2cc2oc(=O)ccc12`, the “tumour outcome (control, treated, inhibition, significance)” value (Carcinogen: 7,12-DIMETHYLBENZ[A]ANTHRACENE, 57-97-6, Dose [Inhibitor]: 0, 400 NMOL ONCE APPLIED 5 MIN PRIOR TO CARCINOGEN DOSE (STUDY DURATION: 25 WK), Route [Inhibitor]: DERMAL, Species: MOUSE, Strain/Sex: SENCAR, Target Tissue: Type of Lesion: SKIN: PAPILLOMA, Dose [Carcinogen]: 10 NMOL ONCE, Promoter: 12-O-TETRADECANOYLPHORBOL-13-ACETATE, 16561-29-8) is given as 96%, 100%, -4%, not significant, the “tumour outcome (control, treated, inhibition, significance)” value (Carcinogen: 7-12-DIMETHYLBENZ[A]ANTHRACENE, 57-97-6, Dose [Inhibitor]: 0, 800 NMOL ONCE APPLIED 5 MIN PRIOR TO CARCINOGEN DOSE (STUDY DURATION: 25 WK), Route [Inhibitor]: DERMAL, Species: MOUSE, Strain/Sex: SENCAR, Target Tissue: Type of Lesion: SKIN: PAPILLOMA, Dose [Carcinogen]: 10 NMOL ONCE, Promoter: 12-O-TETRADECANOYLPHORBOL-13-ACETATE, 16561-29-8) is given as 96%, 100%, -4%, not significant and 93%, 96%, -3%, not significant and the “tumour outcome (control, treated, inhibition, significance)” value (Carcinogen: BENZO[A]PYRENE, 50-32-8, Dose [Inhibitor]: 0, 20 NMOL ONCE APPLIED 5 MIN PRIOR TO CARCINOGEN DOSE (STUDY DURATION: 25 WK), Route [Inhibitor]: DERMAL, Species: MOUSE, Strain/Sex: SENCAR, Target Tissue: Type of Lesion: SKIN: PAPILLOMA, Dose [Carcinogen]: 200 NMOL ONCE, Promoter: 12-O-TETRADECANOYLPHORBOL-13-ACETATE, 16561-29-8) is given as 91%, 100%, -10%, not significant. The “tumour outcome (control, treated, inhibition, significance)” value (Carcinogen: BENZO[A]PYRENE, 50-32-8, Dose [Inhibitor]: 0, 100 NMOL ONCE APPLIED 5 MIN PRIOR TO CARCINOGEN DOSE (STUDY DURATION: 25 WK), Route [Inhibitor]: DERMAL, Species: MOUSE, Strain/Sex: SENCAR, Target Tissue: Type of Lesion: SKIN: PAPILLOMA, Dose [Carcinogen]: 200 NMOL ONCE, Promoter: 12-O-TETRADECANOYLPHORBOL-13-ACETATE, 16561-29-8) was 91%, 87%, 4%, not significant, the “tumour outcome (control, treated, inhibition, significance)” value (Carcinogen: BENZO[A]PYRENE, 50-32-8, Dose [Inhibitor]: 0, 400 NMOL ONCE APPLIED 5 MIN PRIOR TO CARCINOGEN DOSE (STUDY DURATION: 25 WK), Route [Inhibitor]: DERMAL, Species: MOUSE, Strain/Sex: SENCAR, Target Tissue: Type of Lesion: SKIN: PAPILLOMA, Dose [Carcinogen]: 200 NMOL ONCE, Promoter: 12-O-TETRADECANOYLPHORBOL-13-ACETATE, 16561-29-8) was 91%, 92%, -1%, not significant and the “tumour outcome (control, treated, inhibition, significance)” value (Carcinogen: BENZO[A]PYRENE, 50-32-8, Dose [Inhibitor]: 0, 800 NMOL ONCE APPLIED 5 MIN PRIOR TO CARCINOGEN DOSE (STUDY DURATION: 25 WK), Route [Inhibitor]: DERMAL, Species: MOUSE, Strain/Sex: SENCAR, Target Tissue: Type of Lesion: SKIN: PAPILLOMA, Dose [Carcinogen]: 200 NMOL ONCE, Promoter: 12-O-TETRADECANOYLPHORBOL-13-ACETATE, 16561-29-8) was 91%, 82%, 10%, not significant.
In the case of `CC(C)=CCC/C(C)=C/CC/C(C)=C/CC/C=C(\C)CC/C=C(\C)CCC=C(C)C`, the “tumour outcome (control, treated, inhibition, significance)” value (Carcinogen: BENZO[A]PYRENE, 50-32-8, Dose [Inhibitor]: 25 MG IN 0.1 ML ACETONE 3/WK ADMINISTERED SIMULTANEOUSLY WITH CARCINOGEN FOR DURATION OF STUDY (STUDY DURATION: 440 D), Route [Inhibitor]: DERMAL, Species: MOUSE, Strain/Sex: ICR/FEMALE, Target Tissue: Type of Lesion: SKIN: PAPILLOMA, Dose [Carcinogen]: 5 UG IN 0.1 ML ACETONE 3/WK FOR DURATION OF STUDY, Promoter: NONE USED) is given as 16/50 (32%), 1/50 (2%), 94%, not calculated and the “tumour outcome (control, treated, inhibition, significance)” value (Carcinogen: BENZO[A]PYRENE, 50-32-8, Dose [Inhibitor]: 25 MG IN 0.1 ML ACETONE 3/WK ADMINISTERED SIMULTANEOUSLY WITH CARCINOGEN FOR DURATION OF STUDY (STUDY DURATION: 440 D), Route [Inhibitor]: DERMAL, Species: MOUSE, Strain/Sex: ICR/FEMALE, Target Tissue: Type of Lesion: SKIN: SQUAMOUS CARCINOMA, Dose [Carcinogen]: 5 UG IN 0.1 ML ACETONE 3/WK FOR DURATION OF STUDY, Promoter: NONE USED) is given as 12/50 (24%), 0/50 (0%), 100%, not calculated.
For `O=C(O)CC(O)(CC(=O)O)C(=O)O`, the “tumour outcome (control, treated, inhibition, significance)” value (Carcinogen: N-BUTYL-N-(4-HYDROXYBUTYL)NITROSAMINE, 3817-11-6, Dose [Inhibitor]: 4.85% IN BASAL DIET ADMINISTERED SIMULTANEOUSLY WITH CARCINOGEN DOSE FOR 20 WK (STUDY DURATION: 20 WK), Route [Inhibitor]: ORAL, Species: RAT, Strain/Sex: F344/MALE, Target Tissue: Type of Lesion: BLADDER: CARCINOMA, Dose [Carcinogen]: 0.025% IN DRINKING WATER FOR 20 WK, Promoter: NONE USED) is listed as 3/15 (20%), 3/15 (20%), 0%, not significant, the “tumour outcome (control, treated, inhibition, significance)” value (Carcinogen: N-BUTYL-N-(4-HYDROXYBUTYL)NITROSAMINE, 3817-11-6, Dose [Inhibitor]: 4.85% IN BASAL DIET ADMINISTERED SIMULTANEOUSLY WITH CARCINOGEN DOSE FOR 20 WK (STUDY DURATION: 20 WK), Route [Inhibitor]: ORAL, Species: RAT, Strain/Sex: F344/MALE, Target Tissue: Type of Lesion: BLADDER: PAPILLOMA, Dose [Carcinogen]: 0.025% IN DRINKING WATER FOR 20 WK (FOR A TOTAL INTAKE OF 4.1 MMOL/RAT), Promoter: NONE USED) is listed as 4/15 (27%), 2/15 (13%), 50%, not significant and the “tumour outcome (control, treated, inhibition, significance)” value (Carcinogen: N-BUTYL-N-(4-HYDROXYBUTYL)NITROSAMINE, 3817-11-6, Dose [Inhibitor]: 6.50% IN BASAL DIET ADMINISTERED SIMULTANEOUSLY WITH CARCINOGEN DOSE FOR 20 WK (STUDY DURATION: 20 WK), Route [Inhibitor]: ORAL, Species: RAT, Strain/Sex: F344/MALE, Target Tissue: Type of Lesion: BLADDER: CARCINOMA, Dose [Carcinogen]: 0.025% IN DRINKING WATER FOR 20 WK, Promoter: NONE USED) is listed as 3/15 (20%), 12/15 (80%), -300%, p<0.01. The “tumour outcome (control, treated, inhibition, significance)” value (Carcinogen: N-BUTYL-N-(4-HYDROXYBUTYL)NITROSAMINE, 3817-11-6, Dose [Inhibitor]: 6.50% IN BASAL DIET ADMINISTERED SIMULTANEOUSLY WITH CARCINOGEN DOSE FOR 20 WK (STUDY DURATION: 20 WK), Route [Inhibitor]: ORAL, Species: RAT, Strain/Sex: F344/MALE, Target Tissue: Type of Lesion: BLADDER: PAPILLOMA, Dose [Carcinogen]: 0.025% IN DRINKING WATER FOR 20 WK (FOR A TOTAL INTAKE OF 6.8 MMOL/RAT), Promoter: NONE USED) was 4/15 (27%), 3/15 (20%), 25%, not significant, the “tumour outcome (control, treated, inhibition, significance)” value (Carcinogen: N-ETHYL-N-(4-HYDROXYBUTYL)NITROSAMINE, 54897-62-0, Dose [Inhibitor]: 4.85% IN BASAL DIET ADMINISTERED SIMULTANEOUSLY WITH CARCINOGEN DOSE FOR 20 WK (STUDY DURATION: 20 WK), Route [Inhibitor]: ORAL, Species: RAT, Strain/Sex: F344/MALE, Target Tissue: Type of Lesion: BLADDER: CARCINOMA, Dose [Carcinogen]: 0.021% IN DRINKING WATER FOR 20 WK, Promoter: NONE USED) was 13/15 (87%), 14/15 (93%), -8%, not significant and the “tumour outcome (control, treated, inhibition, significance)” value (Carcinogen: N-ETHYL-N-(4-HYDROXYBUTYL)NITROSAMINE, 54897-62-0, Dose [Inhibitor]: 4.85% IN BASAL DIET ADMINISTERED SIMULTANEOUSLY WITH CARCINOGEN DOSE FOR 20 WK (STUDY DURATION: 20 WK), Route [Inhibitor]: ORAL, Species: RAT, Strain/Sex: F344/MALE, Target Tissue: Type of Lesion: BLADDER: PAPILLOMA, Dose [Carcinogen]: 0.021% IN DRINKING WATER FOR 20 WK, Promoter: NONE USED) was 14/15 (93%), 13/15 (87%), 7%, not significant. For the same compound, the “tumour outcome (control, treated, inhibition, significance)” value (Carcinogen: N-ETHYL-N-(4-HYDROXYBUTYL)NITROSAMINE, 54897-62-0, Dose [Inhibitor]: 6.50% IN BASAL DIET ADMINISTERED SIMULTANEOUSLY WITH CARCINOGEN DOSE FOR 20 WK (STUDY DURATION: 20 WK), Route [Inhibitor]: ORAL, Species: RAT, Strain/Sex: F344/MALE, Target Tissue: Type of Lesion: BLADDER: CARCINOMA, Dose [Carcinogen]: 0.021% IN DRINKING WATER FOR 20 WK, Promoter: NONE USED) was 13/15 (87%), 15/15 (100%), -15%, not significant, the “tumour outcome (control, treated, inhibition, significance)” value (Carcinogen: N-ETHYL-N-(4-HYDROXYBUTYL)NITROSAMINE, 54897-62-0, Dose [Inhibitor]: 6.50% IN BASAL DIET ADMINISTERED SIMULTANEOUSLY WITH CARCINOGEN DOSE FOR 20 WK (STUDY DURATION: 20 WK), Route [Inhibitor]: ORAL, Species: RAT, Strain/Sex: F344/MALE, Target Tissue: Type of Lesion: BLADDER: PAPILLOMA, Dose [Carcinogen]: 0.021% IN DRINKING WATER FOR 20 WK, Promoter: NONE USED) was 14/15 (93%), 13/15 (87%), 7%, not significant and the “tumour outcome (control, treated, inhibition, significance)” value (Carcinogen: N-ETHYL-N-HYDROXYETHYLNITROSAMINE, 13147-25-6, Dose [Inhibitor]: 0, 5% IN DIET OF UNILATERALLY NEPHRECTOMIZED RATS BEGINNING POST CARCINOGEN TREATMENT AND CONTINUING FOR 18 WK (STUDY DU, Route [Inhibitor]: ORAL, Species: RAT, Strain/Sex: WISTAR/MALE, Target Tissue: Type of Lesion: KIDNEY: RENAL CELL TUMOR, Dose [Carcinogen]: 1000 PPM IN DIET FOR 2 WK, Promoter: POTASSIUM DIBASIC PHOSPHATE, 7758-11-4) was 15/15 (100%), 4/14 (29%), 71%, p<0.05.
